Like-named read-outs stand apart in the source and are kept apart here.

Results on 13 compounds are retold here after patent US4462992A, “Nitroimidazole radiosensitizers for hypoxic tumor cells and compositions thereof” (priority 1982, dated 1984).

Series [1] in a line: Pharmacokinetics, localization in tissue in mice bearing B16 melanoma. As to conditions: for concentration at 0.5 h / concentration at 1 h / Kp at 0.5 h / Kp at 1 h: mouse, ip, 1000 mg/kg; for concentration at 0.5 h / concentration at 1 h: 1 g/kg intraperitoneal. It is filed as in vivo, mouse (C57/BL). As for the experimental part: The drug solution was made in normal saline at a concentration of 50 mg/ml. The drug solution was injected intraperitoneally at a dose level of 1 g/kg to C57/BL mice bearing 15 day old B16 melanoma tumor. At 30 and 60 minute interval after the drug administration, mice were anesthetized, blood sample was taken directly by heart puncture and tumor and brain tissue were removed. Plasma was separated after centrifugation of the whole blood and extracted with methanol. Brain and tumor tissue were homogenized and also extracted with methanol. The methanol extracts were analyzed by reverse phase high-performance liquid chromatography employing 25% methanol as mobile phase. The peak was detected at 320 nm with a retention time of 2.3 min. The flow rate was 2 ml/min.

Series [2] relates to hypoxic tumor cells. As to conditions: cited from earlier work.
Series [3] in a line: In vitro cytotoxicity in oxic cells (% survival). The format is cell-based, Chinese hamster. As to conditions: hamster, v-79 cells, oxic, 2 hours, read-out: In vitro cytoxicity in oxic cells (% survival at 2 hours); for viability at 2 h, 100 µM: 0.1 mM; for viability at 2 h, 500 µM: 0.5 mM; for viability at 2 h, 1000 µM: 1.0 mM; for viability at 2 h, 5000 µM: 5.0 mM. On the procedure: (§1) Asynchronous monolayers of cultures of Chinese hamster cells line V-79 were employed in all experiments. The monolayers were derived from exponentially growing cultures. Methods of culturing and handling have been reported earlier by Cooke et al, Rad. Res. 65, 152 (1976). The plated cultures were rendered hypoxic in sealed dural containers capable of holding seven petri dishes, by purging with nitrogen (oxygen-free grade) for one hour. Irradiation was carried out by using a cobalt-60 source at a dose rate of approximately 240 rad/min according to the procedure described by Agrawal et al Rad. Res. 78:532 (1979). A dose of 1400 rad was given to hypoxic cells in glass petri dishes in the presence of a given drug concentration (2000 cells/dish). Cell survival was estimated from unirradiated toxic hypoxic cells exposed to the same drug concentration. Complete survival curves were obtained for each compound at the radiation doses of 400 to 3000 rad. The Do value was calculated for each compound and the ratio of the Do value for the hypoxic control cells to the Do value of the hypoxic drug treated cells provided the sensitized enhancement ratio of the corresponding agent.
(§2) Cultures were incubated for 6 days at 37° C. in an atmosphere of 5% CO2. The resulting colonies were fixed in absolute ethanol and stained with methylene blue and counted.
(§3) To determine toxicity in vitro, glass petri dishes containing approximately 200 Chinese hamster cells/dish were exposed to a range of concentrations of each drug for 2 hours and/or 4 hours at 37° C. Drug concentrations between 10 μM and 0.5 mM were employed initially.

Series [4] deals with Chinese hamster cells line V-79. Nature of the series: Radiosensitization (enhancement ratio, cobalt-60 irradiation of hypoxic cells). It is filed as cell-based. As for the experimental part: as §1, §2
Series [5] can be described thus: In vitro cytotoxicity in hypoxic cells (% survival). The format is cell-based, Chinese hamster. As to conditions: hamster, v-79 cells; for viability at 2 h, 50 µM / viability at 4 h, 50 µM: 0.05 mM; for viability at 2 h, 250 µM / viability at 4 h, 250 µM: 0.25 mM; for viability at 4 h, 10 µM / viability at 4 h, 50 µM / viability at 4 h, 100 µM / viability at 4 h, 250 µM: read-out: In vitro cytoxicity in hypoxic cells (% survival at 4 hours). As for the experimental part: as §1, §2, §3

The test system of series [6] is Chinese hamster cells line V-79 (oxic). The experiment in a line: In vitro cytotoxicity in oxic cells (% survival). It is filed as cell-based. As to conditions: 2 hours. As for the experimental part:
as §1, §2, §3

Setting [7] is: 2 hours, read-out: In vitro cytoxicity in hypoxic cells (% survival at 2 hours).

`O=[N+]([O-])c1nccn1[C@@H]1C=C[C@H](O)[C@@H](CO)O1` [1-(2',3'-didehydro-2',3'-dideoxy-α-D-erythro-hexopyranosyl)-2-nitroimidazole]: the “tumor concentration relative to brain (Tumor/Brain ratio)” value in series [1] (30 and 60 min) is given as “approximately 3 fold”. For the same compound, the “Ratio of Brain/Plasma, change with time” value in series [1] (30 to 60 min) was “increased with time”. For the same compound, in series [1] (30 to 60 min), the “Ratio of Tumor/Plasma, change with time” value is recorded as “increased with time”. Also, the “Ratio of Tumor/Brain” value in series [1] (30 min) worked out at 2.87; in series [1] (60 min), 2.88. For the same compound, the concentration at 0.5 h was 293000 ng/g in series [1] (b16 melanoma tumor, tumor, 30 min, read-out: (B16 melanoma)); 102000 ng/g in series [1] (brain, 30 min, read-out: Brain); 1050 µg/mL in series [1] (plasma, 30 min, read-out: Plasma). For the same compound, the concentration at 1 h in series [1] (b16 melanoma tumor, tumor, 60 min, read-out: (B16 melanoma)) worked out at 346000 ng/g; in series [1] (brain, 60 min, read-out: Brain), 120000 ng/g; in series [1] (plasma, 60 min, read-out: Plasma), 648 µg/mL. For the same compound, the Kp at 0.5 h in series [1] (brain/plasma, 30 min, read-out: Ratio of Brain/Plasma) amounted to 0.097; in series [1] (tumor/plasma, 30 min, read-out: Ratio of Tumor/plasma) it was 0.278. The Kp at 1 h was determined as 0.18 in series [1] (brain/plasma, 60 min, read-out: Ratio of Brain/Plasma) and 0.534 in series [1] (tumor/plasma, 60 min, read-out: Ratio of Tumor/plasma).
`O=c1[nH]c(=O)n([C@H]2C[C@H](O)[C@@H](CO)O2)cc1Br` [5-bromodeoxyuridine]: in series [2], the “selectivity for tumor cells” value is “poor selectivity”.
On to `O=c1[nH]c(=O)n([C@H]2C[C@H](O)[C@@H](CO)O2)cc1F` [5-flourodeoxyuridine], for which the “selectivity for tumor cells” value in series [2] is given as “poor selectivity”.
Take `O=[N+]([O-])c1nccn1C1O[C@H](CO)[C@@H](O)[C@@H]1O` (stereo partly drawn) [D, 1(D-Arabinofuranosyl)-2-nitroimidazole]: in series [3], the viability at 2 h, 100 µM worked out at 105%; the viability at 2 h, 500 µM turned out to be 104%; the viability at 2 h, 1000 µM stood at 99%; the viability at 2 h, 5000 µM worked out at 116%. Besides, the “Radiosensitization (enhancement ratio in Chinese hamster cells)” value in series [4] (1.0 mM) was found to be 1.7.
As for `O=C(OC[C@H]1O[C@H](n2ccnc2[N+](=O)[O-])[C@@H](OC(=O)c2ccccc2)[C@@H]1OC(=O)c1ccccc1)c1ccccc1` [E, 1(2',3',5tri-O--benzoylD-arabinofuranosyl)-2-nitroimidazole], in series [5] (setting [7]), the viability at 2 h, 50 µM was 84% and the viability at 2 h, 250 µM was determined as 12%. The viability at 4 h, 10 µM in series [5] (0.01 mM) turned out to be 80%. In series [5], the viability at 4 h, 50 µM stood at 76% and the viability at 4 h, 250 µM came out at 2.6%. The viability at 4 h, 100 µM in series [5] (0.1 mM) is 46%. Besides, the “Radiosensitization (enhancement ratio in Chinese hamster cells)” value in series [4] (0.05 (mM not given)) amounted to 1.0.
Take `O=C(OC[C@H]1O[C@@H](n2ccnc2[N+](=O)[O-])[C@@H](OC(=O)c2ccccc2)[C@@H]1OC(=O)c1ccccc1)c1ccccc1` [F, 1(2',3',5tri-O--benzoylD-arabinofuranosyl)-2-nitroimidazole]: in series [5] (2 hours, 0.01 mM, read-out: In vitro cytoxicity in hypoxic cells (% survival at 2 hours)), the viability at 2 h, 10 µM came out at 102%. In addition, in series [5] (setting [7]), the viability at 2 h, 50 µM was found to be 102% and the viability at 2 h, 250 µM is 105%. Further, in series [5] (2 hours, 0.1 mM, read-out: In vitro cytoxicity in hypoxic cells (% survival at 2 hours)), the viability at 2 h, 100 µM was found to be 97%. For the same compound, the viability at 4 h, 10 µM in series [5] (0.01 mM) worked out at 103%. For the same compound, in series [5], the viability at 4 h, 50 µM worked out at 104% and the viability at 4 h, 250 µM was found to be 73%. In addition, in series [5] (0.1 mM), the viability at 4 h, 100 µM came out at 89%. Further, in series [4] (0.1 mM), the “Radiosensitization (enhancement ratio in Chinese hamster cells)” value is given as 1.1.
In the case of `O=[N+]([O-])c1nccn1C1C[C@H](O)[C@@H](CO)O1` (stereo partly drawn) [G, 1(2-deoxy-D-erythro-pentofuranosyl)-2-nitroimidazole], in series [3], the viability at 2 h, 100 µM came to 95.3%; the viability at 2 h, 500 µM was found to be 88.9%; the viability at 2 h, 1000 µM was found to be 93%; the viability at 2 h, 5000 µM is 82.4%. Moreover, in series [4] (1.0 mM), the “Radiosensitization (enhancement ratio in Chinese hamster cells)” value was 1.9.
For the compound `O=[N+]([O-])c1nccn1C1C[C@H](O)[C@@H](CO)O1` (stereo partly drawn) [H, 1(2-deoxy-D-erythro-pentofuranosyl)-2-nitroimidazole], the “In vitro cytoxicity in oxic cells (% survival at 2 hours)” value was 95.3% in series [6] (0.1 mM); 94.2% in series [6] (0.5 mM, 120 min, 500 µM); 98.2% in series [6] (1.0 mM, 120 min, 1000 µM); 81.3% in series [6] (5.0 mM, 120 min, 5000 µM). For the same compound, the “Radiosensitization (enhancement ratio in Chinese hamster cells)” value in series [4] (1.0 mM) came out at 1.9.
As for `O=[N+]([O-])c1nccn1C1CCCO1` (centres unmarked) [I, 1-(Tetrahydro-2-furanyl)-2-nitroimidazole], in series [3], the viability at 2 h, 100 µM stood at 98.8%; the viability at 2 h, 500 µM was determined as 101%; the viability at 2 h, 1000 µM worked out at 87.1%; the viability at 2 h, 5000 µM was 79.5%. Also, the “Radiosensitization (enhancement ratio in Chinese hamster cells)” value in series [4] (1.0 mM) was 1.6.
For `O=[N+]([O-])c1nccn1C1CCCCO1` (centres unmarked) [J, 1-(Tetrahydro-2-pyranyl)-2-nitroimidazole] the same measures were 106%, 101%, 105%, 94.9% and 1.7.
On the same counts, the results for `O=[N+]([O-])c1nccn1C1CCCC1O` (centres unmarked) [K, 1-(2-Hydroxycyclopentyl)-2-nitroimidazole] are 112%, 110%, 107%, 94.7% and 2.0.
In the case of `O=[N+]([O-])c1nccn1C1CCCCC1O` (centres unmarked) [L, 1-(2-Hydroxycyclohexyl)-2-nitroimidazole], in series [3], the viability at 2 h, 100 µM is 98.2%; the viability at 2 h, 500 µM was 90.3%; the viability at 2 h, 1000 µM was determined as 86%. Also, the “Radiosensitization (enhancement ratio in Chinese hamster cells)” value in series [4] (1.0 mM) was determined as 2.0.
For `O=[N+]([O-])c1nccn1COCCO` [M, 1-[(2-hydroxyethoxy)methyl]-2-nitroimidazole] the same measures were 99.5%, 106%, 104% and 2.1.
